Measured values reported in PubChem BioAssay (NCI).
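A five-concentration, 48-hour dose response in 96-well plates underlies each endpoint, interpolated linearly between surrounding concentrations. GI50: concentration for 50% inhibition of growth. TGI marks complete inhibition of growth.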

How the values were obtained:
Assay in all cases: NCI-60 cell line screen, 48 h
[1] = tested on: LOX IMVI melanoma
[2] = tested on: MDA-MB-231 breast
[3] = tested on: SNB-19 CNS
[4] = tested on: MCF7 breast
[5] = tested on: MOLT-4 leukemia
[6] = tested on: U251 CNS
[7] = tested on: EKVX NSCLC
[8] = tested on: SNB-75 CNS
[9] = tested on: T-47D breast
[10] = tested on: ACHN renal
[11] = tested on: OVCAR-3 ovarian
[12] = tested on: RPMI-8226 leukemia
[13] = tested on: K-562 leukemia
[14] = tested on: SK-OV-3 ovarian
[15] = tested on: NCI-H23 lung
[16] = tested on: HS 578T breast
[17] = tested on: MALME-3M melanoma
[18] = tested on: CCRF-CEM leukemia
[19] = tested on: UACC-257 melanoma
[20] = tested on: SW-620 colon
[21] = tested on: TK-10 renal
[22] = tested on: SF-268 CNS
[23] = tested on: HCT-116 colon
[24] = tested on: NCI-H460 lung
[25] = tested on: UACC-62 melanoma
[26] = tested on: HOP-92 NSCLC
[27] = tested on: OVCAR-4 ovarian
[28] = tested on: MDA-MB-435
[29] = tested on: SK-MEL-5 melanoma
[30] = tested on: NCI/ADR-RES ovarian
[31] = tested on: A549 NSCLC
[32] = tested on: HCC-2998 colon
[33] = tested on: SF-539 CNS
[34] = tested on: OVCAR-5 ovarian
[35] = tested on: SF-295 CNS
[36] = tested on: SN12C renal
[37] = tested on: COLO 205 colon
[38] = tested on: DU-145 prostate
[39] = tested on: HL-60(TB) leukemia
[40] = tested on: OVCAR-8 ovarian
[41] = tested on: IGROV1 ovarian
[42] = tested on: M14 melanoma
[43] = tested on: PC-3 prostate
[44] = tested on: HCT-15 colon
[45] = tested on: UO-31 renal
[46] = tested on: HOP-62 NSCLC
[47] = tested on: A498 renal
[48] = tested on: CAKI-1 renal
[49] = tested on: NCI-H522 lung
[50] = tested on: SK-MEL-2 melanoma
[51] = tested on: SK-MEL-28 melanoma
[52] = tested on: KM12 colon
[53] = tested on: BT-549 breast
[54] = tested on: HT29 colon
[55] = tested on: RXF 393 renal

Cc1ccc2c(c1)C(=O)C(c1c(-c3[nH]c(=O)c4ccc(C)cc4c3O)c(O)c3ccccc3c1O)=NC2=O
GI50 [1]: 1280 nM | TGI [1]: 2710 nM | GI50 [2]: 457 nM | TGI [2]: 3860 nM | GI50 [3]: 2310 nM | TGI [3]: 7300 nM | GI50 [4]: 1590 nM | TGI [4]: 4580 nM | GI50 [5]: 527 nM | TGI [5]: 3020 nM | GI50 [6]: 1240 nM | TGI [6]: 2700 nM | GI50 [7]: 1720 nM | TGI [7]: 5660 nM | GI50 [8]: 1420 nM | TGI [8]: 2840 nM | GI50 [9]: 1480 nM | TGI [9]: 5260 nM | GI50 [10]: 1720 nM | TGI [10]: 4360 nM | GI50 [11]: 832 nM | TGI [11]: 2400 nM | GI50 [12]: 2320 nM | TGI [12]: 6680 nM | GI50 [13]: 378 nM | TGI [13]: 3440 nM | GI50 [14]: 2150 nM | TGI [14]: 5360 nM | GI50 [15]: 1630 nM | TGI [15]: 4040 nM | GI50 [16]: 2340 nM | TGI [16]: 6330 nM | GI50 [17]: 1760 nM | TGI [17]: 3540 nM | GI50 [18]: 830 nM | TGI [18]: 8030 nM | GI50 [19]: 3040 nM | TGI [19]: 7980 nM | GI50 [20]: 1560 nM | TGI [20]: 3440 nM | GI50 [21]: 2910 nM | TGI [21]: 5970 nM | GI50 [22]: 2240 nM | TGI [22]: 5470 nM | GI50 [23]: 423 nM | TGI [23]: 1530 nM | GI50 [24]: 1780 nM | TGI [24]: 3390 nM | GI50 [25]: 1760 nM | TGI [25]: 3790 nM | GI50 [26]: 1660 nM | TGI [26]: 5100 nM | GI50 [27]: 1170 nM | TGI [27]: 2430 nM | GI50 [28]: 1690 nM | TGI [28]: 3290 nM | GI50 [29]: 1870 nM | TGI [29]: 3810 nM | GI50 [30]: 2110 nM | TGI [30]: 7560 nM | GI50 [31]: 2100 nM | TGI [31]: 4260 nM | GI50 [32]: 2300 nM | TGI [32]: 4970 nM | GI50 [33]: 1670 nM | TGI [33]: 3310 nM | GI50 [34]: 2870 nM | TGI [34]: > 100000 nM | GI50 [35]: 1670 nM | TGI [35]: 3550 nM | GI50 [36]: 1800 nM | TGI [36]: 3630 nM | GI50 [37]: 2850 nM | TGI [37]: 12800 nM | GI50 [38]: 1180 nM | TGI [38]: 2900 nM

Cc1ccc(C2CC(c3cccc(Nc4ccncc4)c3)=NN2c2cc(Cl)cc(Cl)c2)cc1 (configuration not stated)
GI50 [1]: 1550 nM | TGI [1]: 2890 nM | GI50 [39]: 1830 nM | TGI [39]: 4110 nM | GI50 [3]: 1720 nM | TGI [3]: 3450 nM | GI50 [4]: 1890 nM | TGI [4]: 4100 nM | GI50 [5]: 1940 nM | TGI [5]: 4440 nM | GI50 [6]: 1860 nM | TGI [6]: 3880 nM | GI50 [40]: 2210 nM | TGI [40]: 5240 nM | GI50 [41]: 1690 nM | TGI [41]: 3230 nM | GI50 [7]: 1550 nM | TGI [7]: 2940 nM | GI50 [8]: 1230 nM | TGI [8]: 2620 nM | GI50 [10]: 1650 nM | TGI [10]: 3000 nM | GI50 [42]: 1930 nM | TGI [42]: 3990 nM | GI50 [11]: 1720 nM | TGI [11]: 3230 nM | GI50 [43]: 1580 nM | TGI [43]: 3200 nM | GI50 [13]: 1850 nM | TGI [13]: 4580 nM | GI50 [14]: 1680 nM | TGI [14]: 3380 nM | GI50 [15]: 1760 nM | TGI [15]: 3350 nM | GI50 [44]: 1670 nM | TGI [44]: 3100 nM | GI50 [17]: 1670 nM | TGI [17]: 3250 nM | GI50 [18]: 3470 nM | TGI [18]: > 100000 nM | GI50 [45]: 1310 nM | TGI [45]: 2590 nM | GI50 [19]: 1880 nM | TGI [19]: 3830 nM | GI50 [20]: 1690 nM | TGI [20]: 3260 nM | GI50 [21]: 1640 nM | TGI [21]: 3070 nM | GI50 [46]: 1910 nM | TGI [46]: 4530 nM | GI50 [23]: 1850 nM | TGI [23]: 3850 nM | GI50 [24]: 1830 nM | TGI [24]: 3550 nM | GI50 [25]: 1770 nM | TGI [25]: 3250 nM | GI50 [26]: 1370 nM | TGI [26]: 2780 nM | GI50 [27]: 1580 nM | TGI [27]: 3100 nM | GI50 [28]: 1660 nM | TGI [28]: 3110 nM | GI50 [47]: 1210 nM | TGI [47]: 2470 nM | GI50 [48]: 1540 nM | TGI [48]: 3030 nM | GI50 [29]: 1760 nM | TGI [29]: 3170 nM | GI50 [31]: 1780 nM | TGI [31]: 3600 nM | GI50 [32]: 1520 nM | TGI [32]: 2850 nM | GI50 [49]: 1730 nM | TGI [49]: 3580 nM | GI50 [50]: 2000 nM | TGI [50]: 3990 nM | GI50 [51]: 1770 nM | TGI [51]: 3300 nM | GI50 [33]: 1650 nM | TGI [33]: 3050 nM | GI50 [52]: 1650 nM | TGI [52]: 3040 nM | GI50 [34]: 1650 nM | TGI [34]: 3060 nM | GI50 [35]: 1720 nM | TGI [35]: 3100 nM | GI50 [53]: 1740 nM | TGI [53]: 3380 nM | GI50 [36]: 1710 nM | TGI [36]: 3240 nM | GI50 [38]: 1900 nM | TGI [38]: 3520 nM

COc1ccc2c3c([nH]c2c1)C(=O)c1nc(C)ccc1C3=O
GI50 [1]: 2240 nM | TGI [1]: > 100000 nM | GI50 [2]: 3330 nM | TGI [2]: > 100000 nM | GI50 [39]: 2790 nM | TGI [39]: > 100000 nM | GI50 [3]: 2610 nM | TGI [3]: > 100000 nM | GI50 [4]: 1980 nM | TGI [4]: > 100000 nM | GI50 [5]: 2630 nM | TGI [5]: > 100000 nM | GI50 [6]: 4850 nM | TGI [6]: > 100000 nM | GI50 [40]: 3350 nM | TGI [40]: > 100000 nM | GI50 [41]: 326 nM | TGI [41]: > 100000 nM | GI50 [7]: 2680 nM | TGI [7]: > 100000 nM | GI50 [9]: 2650 nM | TGI [9]: > 100000 nM | GI50 [10]: 2550 nM | TGI [10]: > 100000 nM | GI50 [11]: 1620 nM | TGI [11]: 7050 nM | GI50 [43]: 2000 nM | TGI [43]: > 100000 nM | GI50 [12]: 2910 nM | TGI [12]: > 100000 nM | GI50 [13]: 3310 nM | TGI [13]: > 100000 nM | GI50 [14]: > 100000 nM | TGI [14]: > 100000 nM | GI50 [15]: 1080 nM | TGI [15]: 4070 nM | GI50 [44]: 1940 nM | TGI [44]: > 100000 nM | GI50 [16]: 13600 nM | TGI [16]: > 100000 nM | GI50 [17]: 331 nM | TGI [17]: 1650 nM | GI50 [18]: 3690 nM | TGI [18]: > 100000 nM | GI50 [45]: 1030 nM | TGI [45]: > 100000 nM | GI50 [19]: 1480 nM | TGI [19]: 5410 nM | GI50 [54]: 3880 nM | TGI [54]: > 100000 nM | GI50 [20]: 3660 nM | TGI [20]: > 100000 nM | GI50 [21]: > 100000 nM | TGI [21]: > 100000 nM | GI50 [22]: 7800 nM | TGI [22]: > 100000 nM | GI50 [46]: 3500 nM | TGI [46]: > 100000 nM | GI50 [55]: 7300 nM | TGI [55]: > 100000 nM | GI50 [24]: 1020 nM | TGI [24]: 3280 nM | GI50 [25]: 1400 nM | TGI [25]: 3080 nM | GI50 [26]: 20700 nM | TGI [26]: > 100000 nM | GI50 [27]: 2060 nM | TGI [27]: > 100000 nM | GI50 [28]: 1780 nM | TGI [28]: 3190 nM | GI50 [48]: 3820 nM | TGI [48]: > 100000 nM | GI50 [29]: 792 nM | TGI [29]: 2200 nM | GI50 [30]: 2750 nM | TGI [30]: > 100000 nM | GI50 [32]: 3810 nM | TGI [32]: > 100000 nM | GI50 [49]: 3830 nM | TGI [49]: > 100000 nM | GI50 [50]: 7040 nM | TGI [50]: > 100000 nM | GI50 [33]: 3750 nM | TGI [33]: > 100000 nM | GI50 [52]: 4950 nM | TGI [52]: > 100000 nM | GI50 [34]: 4420 nM | TGI [34]: > 100000 nM | GI50 [35]: 1210 nM | TGI [35]: 2640 nM | GI50 [36]: 3240 nM | TGI [36]: > 100000 nM | GI50 [38]: 1700 nM | TGI [38]: 3240 nM
